Legend:
[1] = system: Pseudomonas exotoxin A (PEA) in HEK293 cells; assay: Protection of HEK293 cells from death caused by Pseudomonas exotoxin A (WST); format: cell-based, human
Text: Pseudomonas exotoxin A (PEA) must be cleaved by furin at the cell surface to gain entry into a cell, which typically causes cell death. […] We inferred that the D6R blocked the cleavage of PEA by furin, thus preventing its activation.

HIV = assay: Formation of syncytia by HIV in vitro in MT4 T cells; format: cell-based; settings: micromolar concentrations, MT4 line of T cells, preliminary data (not shown)
Text: The administration of polyarginines and other polybasic peptides in accordance with the present invention may be used to combat bacterial and viral infections, and to inhibit the growth of certain cancers. Preliminary data, for example, show activity against Pseudomonas exotoxin, and against HIV.

SMILES: N=C(N)NCCC[C@@H](NC(=O)[C@H](N)CCCN=C(N)N)C(=O)N[C@H](CCCNC(=N)N)C(=O)N[C@H](CCCNC(=N)N)C(=O)N[C@H](CCCNC(=N)N)C(=O)N[C@H](CCCN=C(N)N)C(=O)O [Hexa-D-arginine]
- amount of WST (absorbance) ([1]; HEK293, 1 μM D6R + 10 ng/mL PEA, 51 hours): 0.52 ± 0.04
- amount of WST (absorbance) ([1]; HEK293, 1 μM D6R + 10 ng/mL PEA, 76 hours): 0.85 ± 0.02
- amount of WST (absorbance) ([1]; HEK293, 1 μM D6R + 10 ng/mL PEA, 86 hours): 0.83 ± 0.02
- amount of WST (absorbance) ([1]; HEK293, 1 μM D6R + 10 ng/mL PEA, 96 hours): 0.56 ± 0.04
- amount of WST (absorbance) ([1]; HEK293, 10 μM D6R + 10 ng/mL PEA, 51 hours): 0.54 ± 0.07
- amount of WST (absorbance) ([1]; HEK293, 10 μM D6R + 10 ng/mL PEA, 76 hours): 0.73 ± 0.05
- amount of WST (absorbance) ([1]; HEK293, 10 μM D6R + 10 ng/mL PEA, 86 hours): 0.71 ± 0.02
- amount of WST (absorbance) ([1]; HEK293, 10 μM D6R + 10 ng/mL PEA, 96 hours): 0.67 ± 0.01
- amount of WST (absorbance) ([1]; HEK293, 100 μM D6R + 10 ng/mL PEA, 51 hours): 0.51 ± 0.04
- amount of WST (absorbance) ([1]; HEK293, 100 μM D6R + 10 ng/mL PEA, 76 hours): 0.78 ± 0.03
- amount of WST (absorbance) ([1]; HEK293, 100 μM D6R + 10 ng/mL PEA, 86 hours): 0.61 ± 0.06
- amount of WST (absorbance) ([1]; HEK293, 100 μM D6R + 10 ng/mL PEA, 96 hours): 0.55 ± 0.02
- effect on cell death caused by PEA ([1]; HEK293 cells, 10 ng/mL PEA, 1 μM final concentration): reduced the cell death caused by PEA
- protection of cells from killing by exotoxin ([1]; preliminary data, summary statement): able to protect cells from killing
- formation of syncytia by HIV (HIV): inhibited the formation of syncytia

From patent US7569547B2, “Inhibiting furin with polybasic peptides” (Board of Supervisors of Louisiana State University and …, priority 2001, dated 2009)
